Patent publication US20150105252A1, “SUBSTITUTED PYRAZOLES AS HERBICIDES” (E I DU PONT DE NEMOURS AND COMPANY, priority 2013, published 2015)

What was measured:
[1] = tested on: foxtail, giant; assay: Test A postemergence; format: in vivo, Setaria faberii
How it was run: (§1)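 Ratings express plant response from 0 (no effect) to 100 (complete control), judged visually against untreated controls after approximately 10 days in the greenhouse. Preemergence applications were made as directed soil sprays onto seeded loam–sand mix, and postemergence applications onto 2–10 cm plants at one- to two-leaf stage.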

[2] = tested on: corn; assay: Test A postemergence; format: in vivo, Zea mays
How it was run: as §1

[3] = tested on: barnyardgrass; assay: Test C preemergence; format: in vivo, Echinochloa crus-galli; settings: for Plant response rating (scale of 0 to 100), Barnyardgrass: 250 g ai/ha
Source text: (§2) Seeds of plant species selected from blackgrass (Alopecurus myosuroides), ryegrass, Italian (Italian ryegrass, Lolium multiflorum), wheat (winter wheat, Triticum aestivum), galium (catchweed bedstraw, Galium aparine), corn (Zea mays), crabgrass, large (large crabgrass, Digitaria sanguinalis), foxtail, giant (giant foxtail, Setaria faberii), johnsongrass (Sorghum halepense), lambsquarters (Chenopodium album), morningglory (Ipomoea coccinea), nutsedge, yellow (yellow nutsedge, Cyperus esculentus), pigweed (redroot pigweed, Amaranthus retroflexus), ragweed (common ragweed, Ambrosia elation), soybean (Glycine max), barnyardgrass (Echinochloa crus-galli), oilseed rape (Brassica napus), waterhemp (common waterhemp, Amaranthus rudis), oat, wild (wild oat, Avena fatua), kochia (Kochia scoparia), Surinam grass (Brachiaria decumbens), foxtail, green (green foxtail, Setaria viridis), goosegrass (Eleusine indica), bromegrass, downy (downy bromegrass, Bromus tectorum), nightshade (eastern black nightshade, Solanum ptycanthum), cocklebur (common cocklebur, Xanthium strumarium), cupgrass, woolly (woolly cupgrass, Eriochloa villosa), bermudagrass (Cynodon dactylon), sunflower, (common oilseed sunflower, Helianthus annuus), Russian thistle (Salsola kali), and velvetleaf (Abutilon theophrasti) were planted into a blend of loam soil and sand and treated preemergence with test chemicals formulated in a non-phytotoxic solvent mixture which included a surfactant.
(§3) At the same time, plants selected from these crop and weed species and also chickweed (common chickweed, Stellaria media), canarygrass (littleseed canarygrass, Phalaris minor), and deadnettle (henbit deadnettle, Lamium amplexicaule), were planted in pots containing Redi-Earth® planting medium (Scotts Company, 14111 Scottslawn Road, Marysville, Ohio 43041) comprising spaghnum peat moss, vermiculite, wetting agent and starter nutrients and treated with postemergence applications of test chemicals formulated in the same manner. Plants ranged in height from 2 to 18 cm (1- to 4-leaf stage) for postemergence treatments. Treated plants and controls were maintained in a greenhouse for 13 to 15 days, after which time all species were compared to controls and visually evaluated. Plant response ratings, summarized in Table C, are based on a scale of 0 to 100 where 0 is no effect and 100 is complete control. A dash (-) response means no test result.

[4] = tested on: nutsedge, yellow; assay: Test C preemergence; format: in vivo, Cyperus esculentus; settings: for Plant response rating (scale of 0 to 100), Nutsedge, Yellow: 250 g ai/ha
Source text: as §2, §3

[5] = tested on: ducksalad; assay: Test B flood; format: in vivo, Heteranthera limosa; settings: 250 g ai/ha, visual rating on 0 to 100 scale (0 no effect, 100 complete control), 13 to 15 days
How it was run: (§4)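 Two-leaf-stage plants, pots flooded (3 cm above soil) and treated through the water, which stayed at that depth. After 13–15 days in greenhouse conditions, visual assessment versus controls: 0 is no effect, 100 complete control, dash means no result.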

[6] = tested on: ragweed; assay: Test C preemergence; format: in vivo, Ambrosia elation
Source text: as §2, §3

[7] = tested on: wheat; assay: Test A preemergence; format: in vivo, Triticum aestivum; settings: preemergence
How it was run: as §1

[8] = tested on: foxtail, giant; assay: Test A preemergence; format: in vivo, Setaria faberii
How it was run: as §1

[9] = tested on: soybean; assay: Test C preemergence; format: in vivo, Glycine max; settings: for Plant response rating (scale of 0 to 100), Soybean: 250 g ai/ha
Source text: as §2, §3

[10] = tested on: morningglory; assay: Test A postemergence; format: in vivo, Ipomoea spp.
How it was run: as §1

[11] = tested on: galium; assay: Test C preemergence; format: in vivo, Galium aparine; settings: for Plant response rating (scale of 0 to 100), Galium: 250 g ai/ha
Source text: as §2, §3

[12] = tested on: johnsongrass; assay: Test C preemergence; format: in vivo, Sorghum halepense; settings: for Plant response rating (scale of 0 to 100), Johnsongrass: 250 g ai/ha
Source text: as §2, §3

[13] = tested on: sedge, umbrella; assay: Test B flood; format: in vivo, Cyperus difformis; settings: 250 g ai/ha, visual rating on 0 to 100 scale (0 no effect, 100 complete control), 13 to 15 days
How it was run: as §4

[14] = tested on: ryegrass, Italian; assay: Test C preemergence; format: in vivo, Lolium multiflorum
Source text: as §2, §3

[15] = Postemergence, 500 g ai/ha, visual rating after approx. 10 days, 0 to 100 scale (0 no effect, 100 complete control)
[16] = postemergence, 125 g ai/ha, about 10 days, visual rating on 0 to 100 scale (0 no effect, 100 complete control)
[17] = preemergence, 31 g ai/ha, scale 0 to 100 (0 no effect, 100 complete control), 13 to 15 days
[18] = preemergence, 62 g ai/ha, 13 to 15 days, scale 0 to 100, 0 = no effect, 100 = complete control
[19] = preemergence, 125 g ai/ha, scale 0 to 100, 0 is no effect, 100 is complete control
[20] = preemergence, 31 g ai/ha, visual rating, scale 0 to 100 (0 no effect, 100 complete control), 13 to 15 days
[21] = 125 g ai/ha, visual injury, 0 to 100 scale, approx. 10 days
[22] = 500 g ai/ha, visual injury after approx. 10 days, 0 to 100 scale (0 no effect, 100 complete control)
[23] = preemergence, 125 g ai/ha, visual injury, 0 to 100 scale, approx. 10 days
[24] = Preemergence, 16 g ai/ha, scale 0 to 100
[25] = preemergence, 500 g ai/ha, visual injury after approx. 10 days, 0 to 100 scale (0 no effect, 100 complete control)
[26] = Postemergence, 500 g ai/ha, 0 to 100 scale (0 no effect, 100 complete control)

| SMILES | Foxtail, Giant plant response rating [1, 15] | Foxtail, Giant plant response rating [1, 16] | Corn plant response rating [2, 15] | Corn plant response rating [2, 16] | Barnyardgrass plant response rating [3, 17] | Plant response rating, Barnyardgrass [3, 18] | Barnyardgrass plant response rating [3, 19] | Nutsedge, Yellow plant response rating [4, 20] | Plant response rating, Nutsedge, Yellow [4, 18] | Nutsedge, Yellow plant response rating [4, 19] | Plant response rating, Ducksalad [5] | Wheat plant response rating [7, 21] | Wheat plant response rating [7, 22] | Foxtail, Giant plant response rating [8, 23] | Soybean plant response rating [9, 20] | Plant response rating, Soybean [9, 18] | Soybean plant response rating [9, 19] | Morningglory plant response rating [10, 16] | Plant response rating, Sedge, Umbrella [13] | Foxtail, Giant plant response rating [8, 25] | further results |
| --- | --- | --- | --- | --- | --- | --- | --- | --- | --- | --- | --- | --- | --- | --- | --- | --- | --- | --- | --- | --- | --- |
| CCc1cc(C(=O)NCC(F)(F)F)nn1Cc1ccnc(C(F)(F)F)c1 [Compound 78, 5-ethyl-N-(2,2,2-trifluoroethyl)-1-[[(2-trifluoromethyl)-4-pyridinyl]methyl]-1H-pyrazole-3-carboxamide] | 100 | 90 | 100 | 100 | 100 | 100 | 100 | 70 | 85 | 98 | 85 | 50 | 100 | 100 | 98 | 98 | 98 | 100 | 80 | – | Plant response rating (scale of 0 to 100), Barnyardgrass ([3]; Preemergence): 100; Plant response rating (scale of 0 to 100), Nutsedge, Yellow ([4]; Preemergence): 98; Plant response rating (scale of 0 to 100), Ragweed ([6]; Preemergence, 250 g ai/ha): 100; Ragweed plant response rating [6, 20]: 80; Plant response rating, Ragweed [6, 18]: 98; Ragweed plant response rating [6, 19]: 98; Foxtail, Giant plant response rating ([8]; Preemergence, 500 g ai/ha, 0 to 100 scale, 0 no effect, 100 complete control): 100; Plant response rating (scale of 0 to 100), Soybean ([9]; Preemergence): 98; Morningglory plant response rating [10, 15]: 100; Plant response rating (scale of 0 to 100), Galium ([11]; Preemergence): 100; Galium plant response rating [11, 20]: 85; Plant response rating, Galium [11, 18]: 100; Galium plant response rating [11, 19]: 100; Plant response rating (scale of 0 to 100), Johnsongrass ([12]; Preemergence): 100; Johnsongrass plant response rating [12, 20]: 85; Plant response rating, Johnsongrass [12, 18]: 95; Johnsongrass plant response rating [12, 19]: 100 |
| CCc1cc(C(=O)NOC(C)C)nn1Cc1ccnc(C(F)(F)F)c1 [Compound 101] | 90 | 80 | 100 | 90 | 75 | 100 | 100 | 5 | 25 | 75 | 70 | 70 | 100 | 100 | 5 | 40 | 50 | 100 | 60 | 100 | Plant response rating, Barnyardgrass [3, 24]: 5; Plant response rating, Nutsedge, Yellow [4, 24]: 5; Plant response rating, Soybean [9, 24]: 0; Morningglory plant response rating [10, 15]: 100; Plant response rating, Ryegrass, Italian [14, 24]: 0; Ryegrass, Italian plant response rating [14, 20]: 30; Plant response rating, Ryegrass, Italian [14, 18]: 60; Ryegrass, Italian plant response rating [14, 19]: 100; Plant response rating, Galium [11, 24]: 80; Galium plant response rating [11, 20]: 80; Plant response rating, Galium [11, 18]: 80; Galium plant response rating [11, 19]: 80; Plant response rating, Johnsongrass [12, 24]: 0; Johnsongrass plant response rating [12, 20]: 20; Plant response rating, Johnsongrass [12, 18]: 40; Johnsongrass plant response rating [12, 19]: 75 |
| CCc1cc(C(=O)NC(C)C)nn1Cc1ccnc(C(F)(F)F)c1 [Compound 103] | 90 | 90 | 90 | 80 | 100 | 100 | 100 | 40 | 80 | 85 | 90 | 40 | 100 | 100 | 90 | 100 | 100 | 90 | 90 | 100 | Plant response rating (scale of 0 to 100), Barnyardgrass ([3]; Preemergence): 100; Plant response rating (scale of 0 to 100), Nutsedge, Yellow ([4]; Preemergence): 95; Plant response rating (scale of 0 to 100), Soybean ([9]; Preemergence): 100; Morningglory plant response rating [10, 15]: 100; Plant response rating (scale of 0 to 100), Ryegrass, Italian ([14]; Preemergence, 250 g ai/ha): 98; Ryegrass, Italian plant response rating [14, 20]: 75; Plant response rating, Ryegrass, Italian [14, 18]: 95; Ryegrass, Italian plant response rating [14, 19]: 95; Plant response rating (scale of 0 to 100), Galium ([11]; Preemergence): 100; Galium plant response rating [11, 20]: 100; Plant response rating, Galium [11, 18]: 100; Galium plant response rating [11, 19]: 100; Plant response rating (scale of 0 to 100), Johnsongrass ([12]; Preemergence): 100; Johnsongrass plant response rating [12, 20]: 85; Plant response rating, Johnsongrass [12, 18]: 100; Johnsongrass plant response rating [12, 19]: 100 |
| CCCc1cc(C(=O)NCC(F)(F)F)nn1Cc1cc(C(F)(F)F)nn1C [Compound 138] | – | 100 | – | 80 | – | – | – | – | – | – | 80 | 80 | 90 | 100 | – | – | – | 80 | 90 | 100 | Foxtail, Giant plant response rating [1, 26]: 100; Corn plant response rating [2, 26]: 90; Morningglory plant response rating [10, 26]: 100 |
| CCc1cc(C(=O)NCC(F)(F)F)nn1Cc1cc(OC(F)F)nn1C [Compound 206] | – | 0 | – | 30 | – | – | – | – | – | – | 0 | – | – | – | – | – | – | – | 0 | 100 | Foxtail, Giant plant response rating [1, 26]: 80; Corn plant response rating [2, 26]: 60; Foxtail, Giant plant response rating (0 to 100 scale) ([8]; preemergence, 125 g ai/ha, visual injury approx. 10 days after treatment): 0 |
